Laboratory results published in PMC4806491, “The milk-derived fusion peptide, ACFP, suppresses the growth of primary human ovarian cancer cells by regulating apoptotic gene expression and signaling pathways” (BMC Cancer, 2016).
Values after ≈ are worked out from the molar mass of the structure shown. Like-named read-outs stand apart in the source and are kept apart here. Positions of bridges follow the written chain, without caps; N, C: chain ends. Residues, ends and D or L forms follow the SMILES beside them.

How the values were obtained:
Assay type in all cases: cell-based, human
[1] = tested on: normal ovarian glandular epithelium cells (NOGECs); test: WST-1 viability assay, general toxicity; details: WST-1, compared with paclitaxel, Fig. 3b, cells from 7 patients
Method: Fresh primary ovarian tumor tissues that were assessed and classified as serous ovarian adenocarcinoma (III-IV grade) according to WHO criteria were collected from 53 ovarian cancer patients who underwent initial debulking surgery at the first affiliated hospital of Anhui Medical University between June 2012 and June 2014. All patients had not received adjuvant therapies, such as chemotherapy or radiotherapy, prior to surgery. For comparison, normal ovarian glandular epithelium cells (NOGECs) were cultured from fresh primary normal ovarian tissues harvested from 7 patients with uterine fibromas, which were confirmed as negative for any neoplastic disease by pathological examination. […] To determine purity, cells were analyzed using immunofluorescence of cytokeratin 7 (for ovarian cancer cells) or cytokeratin 19 (for normal ovarian epithelium cells).
Primary ovarian cancer cells were seeded into 96-well plates in sextuplicate at a starting density of 5 × 10^3 cells/well and incubated with ACFP at the concentrations: 0 (as control), 5 × 10^−6, 5 × 10^−5, 5 × 10^−4, 5 × 10^−3, 5 × 10^−2, 5 × 10^−1 and 5 g/L for 24, 48 and 72 h, respectively. […] Cell viability was later measured using the WST-1 (water-soluble tetrazolium 1) cell viability and cytotoxicity assay kit (Beyotime, Haimen, China) according to the manufacturer’s instructions. […]

[2] = tested on: primary ovarian cancer cells
Method: Fresh primary ovarian tumor tissues that were assessed and classified as serous ovarian adenocarcinoma (III-IV grade) according to WHO criteria were collected from 53 ovarian cancer patients who underwent initial debulking surgery at the first affiliated hospital of Anhui Medical University between June 2012 and June 2014. All patients had not received adjuvant therapies, such as chemotherapy or radiotherapy, prior to surgery. For comparison, normal ovarian glandular epithelium cells (NOGECs) were cultured from fresh primary normal ovarian tissues harvested from 7 patients with uterine fibromas, which were confirmed as negative for any neoplastic disease by pathological examination. Prior to tissue deposition, all patients signed written consent forms confirming their donation of tissue for research purposes according to the Declaration of Helsinki. This study was approved by the Anhui Medical University Review Board. Tumor or normal ovarian tissues were cut into small 1.0 mm^3 pieces, rinsed two times in phosphate buffered saline (PBS) and digested with 0.25 % trypsin in a sterile centrifuge tube at 37 °C for 30 min. To obtain a single cell suspension cell, digested tissues were filtered with a 100 μm cell strainer. Cells were collected by centrifugation at 1000 rpm for five minutes, and the cell pellet was re-suspended in Dulbecco’s modified eagle medium (DMEM) supplemented with 10 % fetal bovine serum (FBS). Cells were subsequently cultured in DMEM containing 0.1 mg/L epidermal growth factor (EGF), 0.1 mg/L insulin-like growth factor (IGF) and 0.1 mg/L beta-estradiol with 10 % FBS in 5 % CO2 at 37 °C. Once cells reached 70 to 80 % confluence, cell culture medium was drained from the flask, and cells were digested with 0.25 % collagenase II until approximately 1/3 of the cells fell to the bottom of the dish by eye using a microscope. Due to their initial shedding, most fibroblasts were eliminated by collagenase digestion. The remaining cells were cultured in 5 % CO2 at 37 °C. To determine purity, cells were analyzed using immunofluorescence of cytokeratin 7 (for ovarian cancer cells) or cytokeratin 19 (for normal ovarian epithelium cells).
Primary ovarian cancer cells were seeded into 96-well plates in sextuplicate at a starting density of 5 × 10^3 cells/well and incubated with ACFP at the concentrations: 0 (as control), 5 × 10^−6, 5 × 10^−5, 5 × 10^−4, 5 × 10^−3, 5 × 10^−2, 5 × 10^−1 and 5 g/L for 24, 48 and 72 h, respectively. Cells treated with paclitaxel at 5 × 10^−4 g/L were included in the same plate as a positive control. Cell viability was later measured using the WST-1 (water-soluble tetrazolium 1) cell viability and cytotoxicity assay kit (Beyotime, Haimen, China) according to the manufacturer’s instructions. The percent viability of cells was calculated using the formula to calculate the cell viability ratio (VR): VR (%) = (the experimental group A450nm value/control group A450nm value) × 100 %. To assess general toxicity of ACFP, viability of normal ovarian cells treated with ACFP was assayed using the same procedure. The effect of ACFP was compared with LfcinB and PGPIPN (the products of Shanghai Sangon Biological Engineering Technology, China). Each experiment was performed in two independent sets.

[3] = tested on: primary ovarian cancer cells; test: Real time PCR of bcl-xl, bax, akt, caspase-3, CDC25C and cyclinB1 mRNA; details: increasing concentration, 48 h, 2^-ΔΔCt, β-actin reference, 12 patients
Description: An optimized RT-PCR protocol was employed to analyze the mRNA levels of bcl-xl, bax, akt, caspase-3, CDC25C and cyclinB1. Beta-actin was used as a housekeeping gene. According to primer sequences of bcl-xl, bax, akt, caspase-3, CDC25C, cyclinB1 and β-actin genes retrieved from Primer-Bank, primers were designed with the Primer 5.0 software, which were synthesized by Shanghai Sangon Biological Engineering Technology. These primer sequences are as follows: • bcl-xl forward 5′-[…]-3′, • bcl-xl reverse 5′-[…]-3′; • bax forward 5′-[…]-3′, • bax reverse 5′-[…]-3′; • akt forward 5′-[…]-3′, • akt reverse 5′-[…]-3′; • caspase-3 forward 5′-[…]-3′, • caspase-3 reverse 5′[…]-3′; • CDC25C forward 5′-[…]-3′, • CDC25C reverse 5′-[…]-3′; • cyclinB1 forward 5′-[…]-3′, • cyclinB1 reverse 5′-[…]-3′; • β-actin forward 5′-[…]-3′, • β-actin reverse 5′-[…]-3′.
Primary ovarian cancer cells were harvested after ACFP treatment at different doses and times, respectively. The total RNAs in the primary ovarian cancer cells were extracted according to the Trizol kit manufacturer’s instructions, and the purity and concentration were determined by ultraviolet spectrophotometry. […]
Real time PCR adopts TaKaRa SYBR Green as real time PCR Master Mix in ABI7500 fluorescent real-time PCR instrument. […] Finally, the relative mRNA expression of all samples were calculated using the 2^-ΔΔCt method. […]

## CC[C@H](C)[C@@H]1NC(=O)[C@H](CO)NC(=O)[C@@H]2CCCN2C(=O)[C@H](C)NC(=O)CNC(=O)[C@H](CC(C)C)NC(=O)[C@H](CCCCN)NC(=O)[C@H](CCCCN)NC(=O)[C@H](CCSC)NC(=O)[C@H](CCCNC(=N)N)NC(=O)[C@H](Cc2c[nH]c3ccccc23)NC(=O)[C@H](CCC(N)=O)NC(=O)[C@H](Cc2c[nH]c3ccccc23)NC(=O)[C@H](CCCNC(=N)N)NC(=O)[C@H](CCCNC(=N)N)NC(=O)[C@@H](NC(=O)[C@H](CCCCN)NC(=O)[C@@H](N)Cc2ccccc2)CSSC[C@@H](C(=O)N[C@H](C(=O)N[C@@H](CCCNC(=N)N)C(=O)N[C@@H](CCCNC(=N)N)C(=O)N[C@@H](C)C(=O)N[C@@H](Cc2ccccc2)C(=O)NCC(=O)NCC(=O)NCC(=O)NCC(=O)N[C@@H](CO)C(=O)N2CCC[C@H]2C(=O)NCC(=O)N2CCC[C@H]2C(=O)N[C@H](C(=O)N2CCC[C@H]2C(=O)N[C@@H](CC(N)=O)C(=O)O)[C@@H](C)CC)C(C)C)NC(=O)[C@H]([C@@H](C)O)NC1=O [ACFP] (H-FKCRRWQWRMKKLGAPSITCVRRAFGGGGSPGPIPN-OH; disulfide 3-20; N-terminus and C-terminus assumed)
[1]
  cytotoxicity toward normal primary ovarian cells: little or no cytotoxicity
[2]; 24 h
  IC50, cell viability: 11.5 µg/mL (≈ 2.86 µM)
[2]; 48 h
  IC50, cell viability: 1.63 µg/mL (≈ 0.406 µM)
[2]; 72 h
  IC50, cell viability: 0.388 µg/mL (≈ 0.0966 µM)
[2]; different concentrations, 48 h, in vitro, n=12, Figure S1
  growth of human primary ovarian cells: decreased growth
[3]
  mRNA expression of bax and caspase-3: gradual increase
  mRNA expression of bcl-xl, akt, CDC25C and cyclinB1: gradually decreased
